Experimental data as given in patent US20040002505A1, “Medicinal compositions for cocominant use as anticancer agent” (priority 2000, published 2004).
Counter-ions that a name gives are not always drawn. Like-named read-outs stand apart in the source and are kept apart here.

Experiments:
[1] = system: Human colon cancer strain HCT15; test: Combined use of E7070 and Gemcitabine in human colon cancer HCT15 xenograft model; assay type: in vivo, nude mouse; conditions: used in combination with E7070; no data given
From the text: (§1) Cancer Chemother Pharmacol. 1992;30(1):25-30; (ii)Enhancement of vincristine cytotoxicity in drug-resistant cells by simultaneous treatment with onconase, an antitumor ribonuclease. J Natl Cancer Inst. 1996 June 5;88(11):747-53; (iii)Effects of growth hormone and testosterone on cortical bone formation and bone density in aged orchiectomized rats. Bone. 1999 May;24(5):491-7).

[2] = system: Human colon cancer strain Colo320D.M.; test: Combined use of E7070 and 5-FU in human colon cancer Colo320D.M. xenograft model; conditions: alone or simultaneous; for Toxicity Dead/Treated: E7070 30 mg/kg/day day 1-5, 5-FU 60 mg/kg/day day 1, 5, 9
From the text: as §1

[3] = system: Human colon cancer strain HCT15; test: Combined use of E7070 and MMC in human colon cancer HCT15 xenograft model; conditions: alone or in combination; for Toxicity Dead/Treated: E7070 25 mg/kg/day QDx5, MMC 4.19 mg/kg/day QDx1; for Tx4 (days) mean ± S.D.: HCT15 xenograft, nude mice, iv, E7070 25 mg/kg/day QDx5 (day 1-5; combination line prints 30 mg/kg/day), MMC 4.19 mg/kg/day QDx1 (day 1)
From the text: as §1

[4] = system: Human non-small cell lung cancer LU-99; conditions: alone or simultaneous
From the text: as §1

[5] = system: Human colon cancer strain HCT15; conditions: alone or in combination; for Toxicity Dead/Treated: E7070 30 mg/kg/day QDx5, CPT-11 75 mg/kg/day Q4Dx3; for Tx4 (days) mean ± S.D.: HCT15 xenograft, nude mice, iv, E7070 30 mg/kg/day QDx5 (day 1-5), CPT-11 75 mg/kg/day Q4Dx3 (day 1, 5, 9)
From the text: as §1

[6] = system: Human colon cancer strain SW620; conditions: E7070 25 mg/kg/day day 1-5, CPT-11 62.5 mg/kg/day day 1, 5, 9, alone or simultaneous
From the text: as §1

[7] = used in combination with E7070; model and data not given
[8] = E7070 25 mg/kg/day day 1-5, CDDP 7.5 mg/kg/day day 1

Cl.Nc1ccn([C@@H]2O[C@H](CO)[C@@H](O)C2(F)F)c(=O)n1 [gemcitabine hydrochloride, 2′-deoxy-2′,2′-difluoro-cytidine hydrochloride]
synergistic effect, antitumor activity [1]: excellent antitumor activity

NS(=O)(=O)c1ccc(S(=O)(=O)Nc2cccc3c(Cl)c[nH]c23)cc1 [E7070, N-(3-chloro-1H-indol-7-yl)-4-sulfamoylbenzenesulfonamide]
Toxicity Dead/Treated [2]: 0/6
Toxicity Dead/Treated [3]: 0/6
Tx4 (days) mean ± S.D. [3]: 12.7 ± 2.2 days
Toxicity Dead/Treated [4, 8]: 0/6
mRTV mean ± S.D. ([4]; minimum relative tumor volume, E7070 25 mg/kg/day day 1-5, CDDP 7.5 mg/kg/day day 1): 0.75 ± 0.16
Toxicity Dead/Treated [5]: 0/6
Tx4 (days) mean ± S.D. [5]: 18.7 ± 2.0 days
Toxicity Dead/Treated [6]: 0/6
mRTV mean ± S.D. ([6]; minimum relative tumor volume, day of minimum in parentheses in the cell): 0.76 ± 0.42(12)

CCc1c2c(nc3ccc(OC(=O)N4CCC(N5CCCCC5)CC4)cc13)-c1cc3c(c(=O)n1C2)COC(=O)[C@]3(O)CC [CPT-11, [1,4′-Bipiperidine]-1′-carboxylic acid (S)-4,11-diethyl-3,4,12,14-tetrahydro-4-hydroxy-3,14-dioxo-1H-pyrano-[3′,4′:6,7]-indolizino[1,2-b]quinolin-9-yl ester Hydrochloride trihydrate]
Toxicity Dead/Treated [5]: 0/6
Tx4 (days) mean ± S.D. [5]: 17.8 ± 1.0 days
Toxicity Dead/Treated [6]: 0/6

COc1cccc2c1C(=O)c1c(O)c3c(c(O)c1C2=O)C[C@@](O)(C(=O)CO)C[C@@H]3O[C@H]1C[C@H](N)[C@H](O)[C@H](C)O1 [doxorubicin, 10-[(3-amino-2,3,6-trideoxy-α-L-lyxo-hexopyranosyl)oxy]-7,8,9,10-tetrahydro-6,8,11-trihydroxy-8-(hydroxyacetyl)-1-methoxy-(8S-cis)-5,12-naphthacenedione]
synergistic effect, antitumor activity [7]: excellent antitumor activity

CO[C@@]12[C@H](COC(N)=O)C3=C(C(=O)C(C)=C(N)C3=O)N1C[C@@H]1N[C@@H]12 [MMC, [1aS-(1aα,8β,8aα,8bα)]-6-amino-8-[[(aminocarbonyl)oxy]methyl]1,1a,2,8,8a,8b-hexahydro-8a-methoxy-5-methylazirino[2′,3′:3,4]pyrrolo[1,2-a]indole-4,7-dione]
Toxicity Dead/Treated [3]: 0/6
Tx4 (days) mean ± S.D. [3]: 16.2 ± 3.4 days

cis-diamminedichloroplatinum [CDDP]
Toxicity Dead/Treated [4, 8]: 0/6
Tx4 (days) mean ± S.D. ([4]; LU-99 xenograft, nude mice, iv, E7070 25 mg/kg/day QDx5 (day 1-5), CDDP 7.5 mg/kg/day QDx1 (day 1)): 10.7 ± 0.5 days
Toxicity mRBW mean ([4]; minimum relative body weight, day of minimum in parentheses in the cell, E7070 25 mg/kg/day day 1-5, CDDP 7.5 mg/kg/day day 1): 0.95(5)

O=c1[nH]cc(F)c(=O)[nH]1 [5-FU, 5-fluoro-2,4-(1H,3H)-pyrimidinedione]
Tx4 (days) mean ± S.D. ([2]; Colo320D.M. xenograft, nude mice, iv, E7070 30 mg/kg/day QDx5 (day 1-5), 5-FU 60 mg/kg/day Q4Dx3 (day 1, 5, 9)): 10.0 ± 0.7 days
Toxicity Dead/Treated [2]: 0/6
